Experimental data as given in patent publication US10869931B2, “Polyethylene glycol-modified angiogenesis inhibitor HM-1 and application thereof” (NANJING ANJI BIOLOGICAL TECHNOLOGY CO.,LTD, priority 2016, dated 2020).
Marks after values point to notes of the source that are not given here. Where no end group is shown, it is not given here.

Key:
[1] = system: Gastric cancer tumor cells; assay: MTT proliferation inhibition, gastric cancer cells; assay type: cell-based, human; parameters: concentration or dose not given beside the values; details: 48 h
Method: (§1) The activity of mPEG-HM-1 to inhibit the growth of various tumor cells was examined by MTT assay. The tumor cells were cultured to a concentration of 90% or more in a 37° C., 5% CO2 incubator and collected by trypsinization. The cells were resuspended in the culture medium and counted under a microscope to adjust the cell concentration to 2×10^4 cells/mL, the cell suspension was inoculated into a 96-well plate at 100 μL/well and incubated overnight at 37° C. in a 5% CO2 incubator. mPEG-HM-1 was diluted with the culture solution to each predetermined concentration. Docetaxel is diluted to the final concentration with the culture medium. After the cells were fully attached, each dilution was added to a 96-well plate (100 μL/well). The mPEG-HM-1 dilution was added as a drug-administered group, and docetaxel was added as a positive control group, and a culture solution without any drug was used as a negative control group. Incubate for 48 h at 37° C. in a 5% CO2 incubator. 5 mg/mL of MTT was added to a 96-well plate at 20 μL per well, and incubation was continued for 4 hours. The medium was aspirated, dissolved in 150 μL of DMSO per well, and gently mixed by shaking for 10 min. The absorbance was measured at a measurement wavelength of 570 nm and a reference wavelength of 630 nm using a microplate reader, and the rate of growth inhibition (proliferation inhibition, PI) was calculated. The formula is as follows: PI (%)=1−administration group/negative group
(§2) The test was repeated 3 times independently, and the results obtained by the test were expressed as mean±SD, and the test results are shown in Table 15 to Table 18.

[2] = system: collagen induced arthritis (CIA) in DBA/1 mice; assay: Collagen-induced mouse arthritis (CIA) model; assay type: in vivo; details: CIA DBA/1 mice; for Clinical score: maximum score 16
[3] = system: Bladder Cancer tumor cells; assay: MTT proliferation inhibition, bladder cancer cells; assay type: cell-based, human; parameters: concentration or dose not given beside the values; details: 48 h
Method: as §1, §2

[4] = system: xylene-induced ear swelling in Kunming mice; assay: Xylene-induced ear swelling in mice; assay type: in vivo, mouse; details: for Inhibition rate: ear swelling vs control
Method: Kunming mice were used. The saline group was used as the blank control group, the aspirin group (200 mg/kg) as the positive control group, and the mPEG-HM-1 administration group as the experimental group. Mice were administered once daily for 5 consecutive days. The blank control group was given an equal volume of physiological saline. One hour after the last administration, 0.05 mL of xylene was applied to both sides of the right ear of the mice to cause inflammation, and the left ear was not coated as normal ears. After 2 h, the mice were sacrificed by dislocation, and the ears were cut along the auricle. Ear pieces were taken with a puncher, weighed, and the swelling degree and swelling rate were calculated. Swelling degree=right ear piece weight-left ear piece weight, swelling rate=(swelling degree/left ear piece weight)×100%. Statistical t-test was performed on the test results, *P<0.05 was a significant difference, and **P<0.01 was a very significant difference. See Table 31 to Table 34 for the results.

[5] = system: Kidney cancer tumor cells; assay: MTT proliferation inhibition, kidney cancer cells; assay type: cell-based, human; parameters: concentration or dose not given beside the values; details: 48 h
Method: as §1, §2

[6] = system: carrageenan-induced toe swelling in SD rats; assay: Carrageenan-induced acute toe swelling in rats; assay type: in vivo, rat; parameters: Swelling: unit not given here
Method: SD rats were divided into blank model group, dexamethasone-positive group (5 mg/kg) and mPEG-HM-1 test group. The drug was administered once a day, and the model group was given the same volume of normal saline for 3 days and fed normally. At the first hour after the last administration, 0.1 mL of 1% carrageenan was injected subcutaneously into the right hind paw of the rats to induce inflammation. The volume of the foot was measured at 1 h, 3 h, 5 h, and 7 h after inflammation. The degree of swelling of the foot was calculated according to the following formula: the degree of swelling of the foot (mL)=the volume of the foot after inflammation−the volume before inflammation. Record the number of milliliters of spilled liquid (method: use the ballpoint pen to circle as the measurement mark at the protruding point of the right joint, and then put the right hind foot of each mouse into the volume measuring device, so that the hind limb is exposed outside the cylinder, and the depth of the immersion was determined by coinciding the circle with the liquid surface. After the foot enters the liquid, the liquid level rises, and the volume of the overflow liquid is the volume of the right hind foot of the rat, and the normal volume of the right hind foot of each mouse is sequentially determined).

[7] = system: Esophageal cancer tumor cells; assay: MTT proliferation inhibition, esophageal cancer cells; assay type: cell-based, human; parameters: concentration or dose not given beside the values; details: 48 h
Method: as §1, §2

[8] = system: IL-1β production by mouse peritoneal macrophages; assay: IL-1β production by mouse peritoneal macrophages (ELISA); assay type: cell-based; details: 48 h
Method: (1) IL-1β production: mice were intraperitoneally injected with 1 mL of broth (containing 6%) starch, and three days later, the mouse peritoneal macrophages were aseptically taken, washed twice with 1640 medium, and the cell concentration was adjusted to 2×10^6 cells/mL, inject into a 24-well culture plate, 1 mL per well, incubate for 3 hours in a cell culture incubator, shake once every 30 minutes, and allow the cells to fully adhere. Then, it was washed twice with the culture solution to remove unattached cells. The blank group was added with PBS, the positive group was added with the positive drug dexamethasone (Dex), the model group was not administered, to the experimental group was added low, medium and high three concentrations of mPEG-HM-1, and the culture was continued for 48 hours after the administration, 1000 r/min. Centrifuge for 15 min. The supernatant was taken as a sample for testing activity of IL-1β.
(2) Determination of IL-1β content: using R&D mouse IL-1β enzyme-linked immunosorbent assay kit, according to the kit instructions as follows: respectively, the tested samples and different concentrations of standard products, sealed with sealing tape the reaction well and incubated at 37° C. for 90 min; the plate was washed four times; the biotinylated antibody working solution (100 μL/well) was added, and the reaction well was sealed with sealing paper, incubated at 37° c. for 60 min; the plate was washed four times; Add the enzyme conjugate working solution (100 μL/well), seal the reaction well with sealing paper, incubate at 37° C. for 30 min; wash the plate four times; add color reagent (100 μL/well), incubate at 37° C. 10-20 min, add stop solution (100 μL/well), mix and measure OD450 value.

[9] = system: Thyroid cancer tumor cells; assay: MTT proliferation inhibition, thyroid cancer cells; assay type: cell-based, human; parameters: concentration or dose not given beside the values; details: 48 h
Method: as §1, §2

[10] = 10 mg/kg subcutaneous from day 30 of modeling
[11] = 10 mg/kg once daily for 5 days, 2 h after xylene
[12] = 20 mg/kg once daily for 5 days, 2 h after xylene
[13] = 20 mg/kg once a day for 3 days, 1 h after carrageenan
[14] = 20 mg/kg once a day for 3 days, 3 h after carrageenan
[15] = 20 mg/kg once a day for 3 days, 5 h after carrageenan
[16] = 20 mg/kg once a day for 3 days, 7 h after carrageenan
[17] = 20 mg/kg subcutaneous from day 30 of modeling

mPEG2-NHS5k-Arg-Gly-Ala-Asp-Arg-Ala-Gly-Gly-Gly-Gly-Arg-Gly-Asp ({mPEG2‑NHS 5 kDa}-RGADRAGGGGRGD) [mPEG2-NHS5k-HM-1]
rate of growth inhibition [1]: 50.31 ± 13.29% | Joint swelling [2, 10]: 0.78 ± 0.12 mm | Left and right paw swelling [2, 10]: 0.76 ± 0.11 mm | Clinical score [2, 10]: 9.01 ± 1.28 | rate of growth inhibition [3]: 38.64 ± 12.72% | Inhibition rate ([4]; 5 mg/kg once daily for 5 days): 10.02% | Swelling ([4]; 5 mg/kg once daily for 5 days, right minus left ear piece weight 2 h after xylene): 5.56 ± 0.19 mg | Swelling [4, 11]: 4.94 ± 0.28* mg | Inhibition rate ([4]; 10 mg/kg once daily for 5 days): 20.05% | Swelling [4, 12]: 4.31 ± 0.20** mg | Inhibition rate ([4]; 20 mg/kg once daily for 5 days): 30.23% | rate of growth inhibition [5]: 47.52 ± 11.48% | Swelling ([6]; 10 mg/kg once a day for 3 days, 1 h after carrageenan): 0.25 ± 0.13 | Swelling ([6]; 10 mg/kg once a day for 3 days, 3 h after carrageenan): 0.36 ± 0.12 | Swelling ([6]; 10 mg/kg once a day for 3 days, 5 h after carrageenan): 0.43 ± 0.17 | Swelling ([6]; 10 mg/kg once a day for 3 days, 7 h after carrageenan): 0.31 ± 0.15 | Swelling [6, 13]: 0.22 ± 0.11 | Swelling [6, 14]: 0.32 ± 0.21 | Swelling [6, 15]: 0.36 ± 0.12 | Swelling [6, 16]: 0.32 ± 0.16 | rate of growth inhibition [7]: 41.35 ± 11.32% | IL-1β ([8]; 5 μg/mL): 763.97 ± 15.46 pg/mL | Inhibition Rate of IL-1β production ([8]; 5 μg/mL): 17.51% | IL-1β ([8]; 10 μg/mL): 681.45 ± 12.09 pg/mL | Inhibition Rate of IL-1β production ([8]; 10 μg/mL): 26.42% | IL-1β ([8]; 20 μg/mL): 563.37 ± 13.21 pg/mL | Inhibition Rate of IL-1β production ([8]; 20 μg/mL): 39.17% | rate of growth inhibition [9]: 36.23 ± 12.15%

mPEG2-NHS10k-Arg-Gly-Ala-Asp-Arg-Ala-Gly-Gly-Gly-Gly-Arg-Gly-Asp ({mPEG2‑NHS 10 kDa}-RGADRAGGGGRGD) [mPEG2-NHS10k-HM-1]
rate of growth inhibition [1]: 55.67 ± 13.53% | Joint swelling [2, 17]: 0.75 ± 0.15 mm | Left and right paw swelling [2, 17]: 0.74 ± 0.14 mm | Clinical score [2, 17]: 8.83 ± 1.32 | rate of growth inhibition [3]: 43.78 ± 10.16% | Swelling [4, 11]: 5.39 ± 0.14 mg | Inhibition rate ([4]; 10 mg/kg once daily for 5 days): 12.76% | Swelling [4, 12]: 4.72 ± 0.72* mg | Inhibition rate ([4]; 20 mg/kg once daily for 5 days): 23.57% | Swelling ([4]; 40 mg/kg once daily for 5 days, 2 h after xylene): 4.13 ± 0.35** mg | Inhibition rate ([4]; 40 mg/kg once daily for 5 days): 33.19% | rate of growth inhibition [5]: 52.09 ± 14.91% | Swelling [6, 13]: 0.24 ± 0.12 | Swelling [6, 14]: 0.37 ± 0.16 | Swelling [6, 15]: 0.42 ± 0.16 | Swelling [6, 16]: 0.30 ± 0.12 | Swelling ([6]; 40 mg/kg once a day for 3 days, 1 h after carrageenan): 0.21 ± 0.10 | Swelling ([6]; 40 mg/kg once a day for 3 days, 3 h after carrageenan): 0.31 ± 0.17 | Swelling ([6]; 40 mg/kg once a day for 3 days, 5 h after carrageenan): 0.35 ± 0.11 | Swelling ([6]; 40 mg/kg once a day for 3 days, 7 h after carrageenan): 0.33 ± 0.15 | inhibition of carrageenan-induced toe swelling (in words) ([6]; rats, 40 mg/kg, once a day for 3 days): most effective | rate of growth inhibition [7]: 48.12 ± 12.85% | IL-1β ([8]; 10 μg/mL): 758.32 ± 15.18 pg/mL | Inhibition Rate of IL-1β production ([8]; 10 μg/mL): 18.12% | IL-1β ([8]; 20 μg/mL): 675.25 ± 11.93 pg/mL | Inhibition Rate of IL-1β production ([8]; 20 μg/mL): 27.09% | IL-1β ([8]; 40 μg/mL): 546.79 ± 14.12 pg/mL | Inhibition Rate of IL-1β production ([8]; 40 μg/mL): 40.96% | rate of growth inhibition [9]: 40.47 ± 12.03%
